The values below come from patent US20100130493A1, “COMBINATION OF VEGF RECEPTOR TYROSINE KINASE INHIBITORS FOR TREATMENT OF CANCER” (priority 2002, published 2010).

Assay [1] relates to human A431 vulval carcinoma tumour xenografts. The assay is described as follows: Human A431 vulval carcinoma tumour xenografts in nude mice. The following applies: A431 xenograft; for Number of tumours regressing after 31 days of treatment (treatment from day 28 to day 59): tumour volume at day 59 smaller than pre-treatment value on day 28, regressing/total. For orientation: Xenograft models place foreign cells or tissue in a host animal.
Description: 5×10^6 A431 tumour cells in 0.1 ml of serum free Dulbecco's Modified Eagle's Medium (DMEM) were injected subcutaneously (s.c.) into the flank of each athymic (nu/nu genotype) mouse. Eleven days after inoculation tumours were excised and dissected to generate cubic tumour fragments of 0.5-1 mm^3, which were implanted into further nude mice for a therapy experiment. Tumour volumes were assessed by bilateral Vernier caliper measurement and, taking length to be the longest diameter across the tumour and width the corresponding perpendicular, calculated using the formula (length×width)×the square root of (length×width)×(π/6). […] In addition, the number of tumour regressions following 31 days of treatment was ascertained (tumour regression being evident if the tumour volume at day 59 was smaller than the pre-treatment value on day 28).

The test system of assay [2] is human LoVo colon tumour xenografts. The assay is described as follows: Human LoVo colon tumour xenografts in nude mice. The conditions noted are these: LoVo xenograft, p.o. daily days 0-14, ZD6474 6 mg/kg/day, ZD1839 50 mg/kg/day, or combination, versus control.
Description: 10^7 LoVo tumour cells in 0.1 ml of serum free Dulbecco's Modified Eagle's Medium (DMEM) were injected subcutaneously (s.c.) into the flank of each athymic (nu/nu genotype) mouse. Tumor volumes were assessed by bilateral Vernier caliper measurement and, taking length to be the longest diameter across the tumor and width the corresponding perpendicular, calculated using the formula (length×width)×the square root of (length×width)×(π/6). […] A one-tailed two-sample t-test was used to evaluate the significance of tumour growth inhibition.

As for `COc1cc2ncnc(Nc3ccc(F)c(Cl)c3)c2cc1OCCCN1CCOCC1` [ZD1839, N-(3-chloro-4-fluorophenyl)-7-methoxy-6-(3-morpholinopropoxy)quinazolin-4-amine, reference compound], the “Number of tumours regressing after 31 days of treatment (treatment from day 28 to day 59)” value in assay [1] is listed as 3/9.

Consider `COc1cc2c(Nc3ccc(Br)cc3F)ncnc2cc1OCC1CCN(C)CC1` [ZD6474, 4-(4-bromo-2-fluoroanilino)-6-methoxy-7-(1-methylpiperidin-4-ylmethoxy)quinazoline], for which the “% Inhibition of Tumour Growth at Day 14” value in assay [2] is 38%. Besides, the “Mean % Inhibition of tumour growth following 21 days of treatment (treatment from day 28 to day 49)” value in assay [1] (nude mice, p.o., ZD6474 50 mg/kg/day, ZD1839 50 mg/kg/day, or combination, assessed day 49 versus control) is given as 116% (P < 0.001). For the same molecule, the “% tumour regression following 21 days of treatment (day 28 to day 49)” value in assay [1] (restatement of inhibition above 100% as regression, day 49) is given as “(i.e. 16% tumour regression)”. The “Number of tumours regressing after 31 days of treatment (treatment from day 28 to day 59)” value in assay [1] is recorded as 6/9.
